Assay results taken from US20220089646A1 (THE UNIVERSITY OF QUEENSLAND, priority 2019, published 2022).
Like-named read-outs stand apart in the source and are kept apart here. *1 amine or outer side, *2 acyl side, *3 side chain or, on linkers, in order; H or OH if unused. Where a SMILES comes first, the peptide text is derived from it. Bridges are numbered along the chain shown (N, C = ends). [ ]: non-standard residue; d: D form. NHCH2CMe2S = CC(C)(CN[*:1])S[*:2]

Columns and labels:
Serum stability = assay type: in vitro ADME; settings: rat
Protocol: Purified DP-7-11 (1 mg/mL) was dissolved in 0.1 M ammonium bicarbonate (NH4HCO3) buffer. To prepare a stock trypsin solution, 1 mg trypsin was dissolved in 50 mL of 0.1 M NH4HCO3 buffer. Equal volumes of the stock trypsin solution (62.5 μL) and DP-7-11 solution (62.5 μL) were incubated in 375 μL of 0.1M NH4HCO3 buffer in a 37° C. water bath. Aliquots of 100 μL were collected from this mixture at set time intervals of 0 min, up to 24 hours. Ice-cold acetonitrile containing 0.5% TFA was used to quench the reaction between DP-7-11 and trypsin at predetermined intervals, and just prior to HPLC or LC-MS analysis. The quenched samples were vortexed for 10 minutes followed by centrifugation at 12,000 rpm for a further 15 minutes. Supernatant was sampled and analysed using analytical RP-HPLC or LC-MS. Samples without trypsin acted as negative controls and were sampled at two intervals of 0 hour and 6 hours.
Serum stability of DP-7-11 was also performed. In this regard, rat serum replaced trypsin and NH4HCO3 buffer. Water was used as negative control in place of serum, with the stability study performed in an identical fashion to the trypsin study. […] DP-11-00 and DP-11-06 were tested in a similar manner.
As used in this serum and trypsin stability discussion, the term ‘degraded completely’ relates to the relevant compound being completely absent when tested. In other words, the compound being tested is not observed when tested.
This appears to indicate the improved metabolic stability of the present invention.
The serum and trypsin stability of DP-7-11 and DP-7-12 were tested (in some instances again) using LC-MS. The LC-MS utilized in this study was more sensitive than the LC-MS utilized in the above tests.

KOP = KOP (Homo sapiens, UniProt P41145); experiment: Statistics for each peptide | IC50 (nM)
Protocol: Table printed on a drawing sheet, FIG 12
Head of the field: Statistics for each peptide | IC50 (nM)
First copying reader's note: The table stands under a forest plot whose axis is labelled 'Mean IC50 ± 95% CI (nM)'; according to the description the IC50 values were measured in HEK-KOP cells.

DOP = DOP (Homo sapiens, UniProt P41143); experiment: cAMP assay with naloxone in HEK-DOP cells; assay type: cell-based; settings: naloxone 100 μM/well; for Mean cAMP response with naloxone: HEK-DOP, peptide at approximate IC80; for Naloxone reversal of cAMP inhibition through DOP: p<0.05
Protocol: The preparation of buffers, cAMP standard curve, bead solutions were carried out identically to the agonist assay.
Forskolin had been optimised at 50 μM/well. Thus, the 25 mM stocks were used to prepare 300 μL of 0.3 mM Forskolin. The concentration of Forskolin prepared was 6 times the required concentration in the well to account for further dilution in the well. Forskolin solution was then made from this and used to dilute the drug solutions.
Approximate IC80 values were used for DP-7-11 and DP-7-12 to determine the ability of naloxone to reverse agonist inhibitory effect.
The desired concentration of naloxone was 100 μM/well. Thus, 100 μL of 600 μM naloxone was made up from 100 mM stock. This was 6 times the desired in-well concentration to account for further dilution in the well by Forskolin, peptide, cells and acceptor bead solutions.
Stimulation buffer was added to the 0.3 mM Forskolin solution to prepare the Forskolin only treatment solution as the positive control. Stimulation buffer used as the negative control.
The DP series compounds were assayed as follows: The different cAMP standard solutions (3 μL/well) were plated in duplicate. Naloxone solution was then plated (1 μL/well) for each treatment (DP-7-11, DP-7-12, Forskolin only and stimulation buffer) in triplicate. In the same way, stimulation buffer was plated (1 μL/well) for the same number of wells. This made up two sets of wells, antagonist and non-antagonist. Following this, the acceptor bead and cell mixture (3 μL/well) was added to the treatment wells. The plates were then covered and centrifuged at 280 g for 30 seconds before incubation on an orbital shaker for 30 minutes at room temperature. The acceptor bead mixture (3 μL/well) was then added to the cAMP standard curve wells, whilst the drug mixed with Forskolin solutions (3 μL/well) were added to the respective treatment wells in triplicate. Again, the plates were centrifuged at 280 g for 30 seconds, then covered and incubated on the orbital shaker for another 30 minutes. Finally, the donor bead mixture (10 μL/well) was added to each well. This was incubated at room temperature overnight on the orbital shaker.
The Ensight® Multimode Plate Reader was used to quantify the fluorescence units of each plate. Before reading, each plate was centrifuged at 280 g for 30 seconds. Using GraphPad Prism7® Software, cAMP concentrations were determined from the fluorescence data by fit spline/LOWESS analysis. The cAMP standard curve was used for interpolation at this point. The cAMP concentrations were then normalized to the highest cAMP concentration recorded and analyzed by one-way ANOVA for multiple comparisons. This analysis was corrected for multiple comparisons using Bonferroni. […]

Sequence of DOP (P41143 whole entry): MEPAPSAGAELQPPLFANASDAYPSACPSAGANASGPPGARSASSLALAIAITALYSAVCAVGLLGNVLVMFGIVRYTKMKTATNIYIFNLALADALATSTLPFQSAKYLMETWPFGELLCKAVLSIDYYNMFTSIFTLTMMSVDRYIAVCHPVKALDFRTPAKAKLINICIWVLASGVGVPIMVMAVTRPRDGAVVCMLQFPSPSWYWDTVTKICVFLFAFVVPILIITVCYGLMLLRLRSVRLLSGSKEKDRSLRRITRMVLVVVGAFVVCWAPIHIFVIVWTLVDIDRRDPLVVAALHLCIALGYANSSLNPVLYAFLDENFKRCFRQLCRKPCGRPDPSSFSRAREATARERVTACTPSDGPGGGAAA
Sequence of KOP (P41145 whole entry, looked up): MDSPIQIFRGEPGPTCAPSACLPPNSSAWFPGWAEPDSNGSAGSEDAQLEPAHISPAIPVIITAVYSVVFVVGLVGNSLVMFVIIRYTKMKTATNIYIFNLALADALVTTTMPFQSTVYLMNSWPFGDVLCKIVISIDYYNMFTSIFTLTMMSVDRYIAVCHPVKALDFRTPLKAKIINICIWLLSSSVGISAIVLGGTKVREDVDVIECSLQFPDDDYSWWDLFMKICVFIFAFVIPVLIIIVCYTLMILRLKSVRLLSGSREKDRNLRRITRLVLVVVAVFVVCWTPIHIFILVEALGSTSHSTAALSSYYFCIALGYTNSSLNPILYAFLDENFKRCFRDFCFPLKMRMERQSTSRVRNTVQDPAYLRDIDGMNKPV

Row | SMILES | remaining at 1 h, 0.125 mg/mL (Serum stability; after 1 hr, read-out: Peptide still present in serum) [%] | remaining at 2 h, 0.125 mg/mL (Serum stability; after 2 hours, read-out: Peptide still present in serum) [%] | half-life at 0.125 mg/mL (Serum stability; more sensitive LC-MS (Table 8a), read-out: Incubation in serum: half-life) [h] | IC50 (KOP) [nM] | Mean cAMP response with naloxone (DOP) [%] | Naloxone reversal of cAMP inhibition through DOP (DOP) | half-life at 0.125 mg/mL (Serum stability; 37° C., LC-MS (Table 8), read-out: Serum half-life (converted)) [h] | half-life at 0.125 mg/mL (Serum stability; more sensitive LC-MS (Table 8a), read-out: Incubation in serum: half life) [h] | metabolised at 6 h, 0.125 mg/mL (Serum stability; up to 6 h, more sensitive LC-MS, read-out: Degradation in serum) [%]
1 | CC1(C)CNC(=O)C[C@@H](NC(=O)[C@@H](N)Cc2ccc(O)cc2)C(=O)NCC(=O)N[C@@H](Cc2ccccc2)C(=O)N[C@H](C(=O)N[C@@H](CCCNC(=N)N)C(=O)N[C@@H](CCCNC(=N)N)C(N)=O)CSS1 [DP-7-12, c(Tyr-D(Asp)-Gly-Phe-SSa-Arg-Arg)] (H-Y[dD]GFCRR-NH2; linker 2-5 via NHCH2CMe2S) | ~67 | ~20 | ~0.75 | 4.49 ± 1.59 | 62.68 | reversed by naloxone | – | – | –
2 | CC1(C)CNC(=O)C[C@H](C(=O)N[C@@H](CCCNC(=N)N)C(=O)N[C@@H](CCCNC(=N)N)C(N)=O)NC(=O)[C@H](Cc2ccccc2)NC(=O)CNC(=O)[C@@H](NC(=O)[C@@H](N)Cc2ccc(O)cc2)CSS1 [DP-7-11, c(Tyr-SSa-Gly-Phe-D(Asp)-Arg-Arg)] | – | – | – | – | 77.18 | reversed by naloxone | 6 | > 6 | ~10
